Measured values from PMC3445516 (PLoS ONE, 2012).
Read-outs that look alike come from different tables or passages of the source.

Tests used:
Assay in all cases: Ambit kinase profiling, competition binding
[1] = target: T1, AURKC (Homo sapiens, UniProt Q9UQB9)
T1 construct: purchased Ambit Biosciences (KINOMEscan)
T1 sequence (Q9UQB9 1-309): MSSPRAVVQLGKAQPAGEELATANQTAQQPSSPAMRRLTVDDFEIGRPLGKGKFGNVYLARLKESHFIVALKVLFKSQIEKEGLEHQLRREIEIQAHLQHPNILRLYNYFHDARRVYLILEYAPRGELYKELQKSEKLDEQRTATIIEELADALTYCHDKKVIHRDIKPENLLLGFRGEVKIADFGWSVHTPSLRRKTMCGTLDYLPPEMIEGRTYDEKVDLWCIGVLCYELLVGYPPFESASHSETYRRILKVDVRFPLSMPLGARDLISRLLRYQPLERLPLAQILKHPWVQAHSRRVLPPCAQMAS
Method: (§1) Also included in the kinase profile are four isoforms of PKC (δ, ε, η, θ) and eight isoforms of CAMKs (CAMKIα, δ, γ; CAMKIIα, β, δ, γ; CAMK4).
(§2) The global kinase profiling experiment was performed by Ambit Biosciences.

[2] = target: T2, DAPK1 (Homo sapiens, UniProt P53355)
T2 construct: purchased Ambit Biosciences (KINOMEscan)
Method: as §1, §2

[3] = target: T3, EGFR(G719S) (Homo sapiens, UniProt P00533, G719S); conditions: for % Competition: 10 µM
T3 construct: purchased Ambit Biosciences (KINOMEscan)
Method: as §1, §2

[4] = target: T4, EPHA1 (Homo sapiens, UniProt P21709)
T4 construct: purchased Ambit Biosciences (KINOMEscan)
T4 sequence (P21709 26-976): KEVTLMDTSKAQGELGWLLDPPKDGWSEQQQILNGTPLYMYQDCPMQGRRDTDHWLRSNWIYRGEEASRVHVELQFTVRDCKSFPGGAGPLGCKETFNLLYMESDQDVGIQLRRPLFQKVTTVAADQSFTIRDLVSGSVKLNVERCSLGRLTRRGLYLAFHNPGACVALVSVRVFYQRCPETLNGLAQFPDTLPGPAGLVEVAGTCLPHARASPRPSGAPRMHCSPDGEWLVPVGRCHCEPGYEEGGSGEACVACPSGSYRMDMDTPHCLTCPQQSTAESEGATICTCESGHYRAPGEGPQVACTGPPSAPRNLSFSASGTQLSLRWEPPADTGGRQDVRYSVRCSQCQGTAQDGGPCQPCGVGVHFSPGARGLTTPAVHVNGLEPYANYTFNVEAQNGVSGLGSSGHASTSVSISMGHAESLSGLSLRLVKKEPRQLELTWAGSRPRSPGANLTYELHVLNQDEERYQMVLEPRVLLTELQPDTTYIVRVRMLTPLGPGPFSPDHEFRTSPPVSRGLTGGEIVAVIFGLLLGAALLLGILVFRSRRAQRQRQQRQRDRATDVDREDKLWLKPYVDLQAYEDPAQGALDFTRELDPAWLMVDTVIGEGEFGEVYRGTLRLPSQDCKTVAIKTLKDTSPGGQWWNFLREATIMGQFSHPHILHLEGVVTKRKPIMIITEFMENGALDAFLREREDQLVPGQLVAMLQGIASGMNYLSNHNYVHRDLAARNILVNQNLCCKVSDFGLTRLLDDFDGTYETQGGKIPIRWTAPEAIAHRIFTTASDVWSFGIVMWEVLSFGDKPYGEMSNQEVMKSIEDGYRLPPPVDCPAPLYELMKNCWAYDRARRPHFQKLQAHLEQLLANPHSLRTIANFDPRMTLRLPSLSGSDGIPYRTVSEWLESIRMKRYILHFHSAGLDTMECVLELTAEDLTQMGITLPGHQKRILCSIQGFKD
Method: as §1, §2

[5] = target: T5, EPHB3 (Homo sapiens, UniProt P54753)
T5 construct: purchased Ambit Biosciences (KINOMEscan)
T5 sequence (P54753 34-998): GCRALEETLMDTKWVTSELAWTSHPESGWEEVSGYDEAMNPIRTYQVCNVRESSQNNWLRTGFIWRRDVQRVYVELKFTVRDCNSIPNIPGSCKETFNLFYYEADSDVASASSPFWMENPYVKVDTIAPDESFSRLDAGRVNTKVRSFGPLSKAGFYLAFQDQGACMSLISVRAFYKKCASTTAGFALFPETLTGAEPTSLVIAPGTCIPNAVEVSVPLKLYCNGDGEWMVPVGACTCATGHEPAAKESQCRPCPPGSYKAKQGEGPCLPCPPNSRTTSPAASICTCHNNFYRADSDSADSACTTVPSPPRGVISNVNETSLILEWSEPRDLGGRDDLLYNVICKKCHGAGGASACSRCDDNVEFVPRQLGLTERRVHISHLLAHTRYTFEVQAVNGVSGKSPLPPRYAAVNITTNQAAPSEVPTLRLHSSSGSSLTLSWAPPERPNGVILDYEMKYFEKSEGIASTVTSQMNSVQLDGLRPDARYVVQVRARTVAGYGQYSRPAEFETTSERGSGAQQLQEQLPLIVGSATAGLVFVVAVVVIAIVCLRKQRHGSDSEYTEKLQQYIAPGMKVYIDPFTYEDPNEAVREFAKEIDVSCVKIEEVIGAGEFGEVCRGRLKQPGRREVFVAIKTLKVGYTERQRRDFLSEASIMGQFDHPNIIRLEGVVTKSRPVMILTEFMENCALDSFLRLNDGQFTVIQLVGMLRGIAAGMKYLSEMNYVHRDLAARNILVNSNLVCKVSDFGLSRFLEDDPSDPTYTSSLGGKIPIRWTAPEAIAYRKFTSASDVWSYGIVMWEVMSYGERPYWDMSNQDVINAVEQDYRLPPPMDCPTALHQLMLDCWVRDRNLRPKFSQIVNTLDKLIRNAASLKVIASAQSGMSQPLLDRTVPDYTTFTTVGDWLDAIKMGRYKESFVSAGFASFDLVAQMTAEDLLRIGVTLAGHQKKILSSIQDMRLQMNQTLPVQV
Method: as §1, §2

[6] = target: T6, PKC η (Homo sapiens, UniProt P24723); conditions: for competition: PKC η, 10 µM
T6 construct: purchased Ambit Biosciences (KINOMEscan)
Method: as §1, §2

[7] = target: T7, YANK2 (Homo sapiens, UniProt Q9NY57)
T7 construct: purchased Ambit Biosciences (KINOMEscan)
Method: as §1, §2

T7 sequence (Q9NY57 whole entry): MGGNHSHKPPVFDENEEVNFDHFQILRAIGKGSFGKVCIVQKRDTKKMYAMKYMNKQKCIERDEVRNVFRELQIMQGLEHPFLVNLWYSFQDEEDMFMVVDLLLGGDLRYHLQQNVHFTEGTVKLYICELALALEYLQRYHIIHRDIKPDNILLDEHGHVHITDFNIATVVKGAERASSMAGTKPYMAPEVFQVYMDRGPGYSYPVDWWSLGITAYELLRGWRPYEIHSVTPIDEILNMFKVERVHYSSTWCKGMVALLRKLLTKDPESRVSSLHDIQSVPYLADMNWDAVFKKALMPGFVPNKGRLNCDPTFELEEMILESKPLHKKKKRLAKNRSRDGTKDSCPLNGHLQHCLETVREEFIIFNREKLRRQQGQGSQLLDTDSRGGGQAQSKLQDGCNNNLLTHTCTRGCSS
T2 sequence (P53355 whole entry): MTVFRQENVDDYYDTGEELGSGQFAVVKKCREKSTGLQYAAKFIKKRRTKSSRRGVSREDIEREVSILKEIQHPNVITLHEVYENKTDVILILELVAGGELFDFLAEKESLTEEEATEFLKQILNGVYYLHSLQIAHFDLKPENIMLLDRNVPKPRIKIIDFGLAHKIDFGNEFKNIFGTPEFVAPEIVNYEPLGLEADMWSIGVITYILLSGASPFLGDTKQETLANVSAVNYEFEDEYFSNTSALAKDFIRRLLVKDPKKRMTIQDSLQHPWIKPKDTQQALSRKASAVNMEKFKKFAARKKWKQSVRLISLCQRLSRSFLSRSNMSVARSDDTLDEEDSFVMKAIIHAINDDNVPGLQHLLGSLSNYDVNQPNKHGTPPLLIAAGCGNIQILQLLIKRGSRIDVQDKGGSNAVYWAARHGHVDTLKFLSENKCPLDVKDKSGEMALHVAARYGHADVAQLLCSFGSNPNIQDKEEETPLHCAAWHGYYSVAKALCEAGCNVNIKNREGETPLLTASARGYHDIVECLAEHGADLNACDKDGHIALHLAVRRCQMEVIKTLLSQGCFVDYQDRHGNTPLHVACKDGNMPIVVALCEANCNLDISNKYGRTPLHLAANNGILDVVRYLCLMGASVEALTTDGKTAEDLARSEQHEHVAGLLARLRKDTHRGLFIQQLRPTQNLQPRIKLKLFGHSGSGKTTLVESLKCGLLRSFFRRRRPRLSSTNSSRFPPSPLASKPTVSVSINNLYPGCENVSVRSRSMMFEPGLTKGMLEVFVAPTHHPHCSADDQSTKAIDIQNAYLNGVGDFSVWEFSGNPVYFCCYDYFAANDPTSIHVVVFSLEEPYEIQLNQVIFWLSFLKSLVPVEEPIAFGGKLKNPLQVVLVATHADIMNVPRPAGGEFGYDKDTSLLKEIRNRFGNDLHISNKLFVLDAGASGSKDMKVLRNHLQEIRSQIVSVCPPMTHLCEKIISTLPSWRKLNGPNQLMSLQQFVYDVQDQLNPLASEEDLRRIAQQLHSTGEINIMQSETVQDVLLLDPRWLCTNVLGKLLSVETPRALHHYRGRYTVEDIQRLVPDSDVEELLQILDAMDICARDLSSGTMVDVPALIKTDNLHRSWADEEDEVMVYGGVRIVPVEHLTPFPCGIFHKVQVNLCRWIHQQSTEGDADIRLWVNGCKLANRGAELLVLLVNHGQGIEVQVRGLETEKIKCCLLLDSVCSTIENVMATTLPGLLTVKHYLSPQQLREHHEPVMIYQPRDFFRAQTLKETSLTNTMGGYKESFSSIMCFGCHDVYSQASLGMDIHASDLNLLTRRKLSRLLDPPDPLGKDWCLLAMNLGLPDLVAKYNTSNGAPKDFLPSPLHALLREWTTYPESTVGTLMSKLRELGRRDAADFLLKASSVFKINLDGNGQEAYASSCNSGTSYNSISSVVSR
T6 sequence (P24723 whole entry): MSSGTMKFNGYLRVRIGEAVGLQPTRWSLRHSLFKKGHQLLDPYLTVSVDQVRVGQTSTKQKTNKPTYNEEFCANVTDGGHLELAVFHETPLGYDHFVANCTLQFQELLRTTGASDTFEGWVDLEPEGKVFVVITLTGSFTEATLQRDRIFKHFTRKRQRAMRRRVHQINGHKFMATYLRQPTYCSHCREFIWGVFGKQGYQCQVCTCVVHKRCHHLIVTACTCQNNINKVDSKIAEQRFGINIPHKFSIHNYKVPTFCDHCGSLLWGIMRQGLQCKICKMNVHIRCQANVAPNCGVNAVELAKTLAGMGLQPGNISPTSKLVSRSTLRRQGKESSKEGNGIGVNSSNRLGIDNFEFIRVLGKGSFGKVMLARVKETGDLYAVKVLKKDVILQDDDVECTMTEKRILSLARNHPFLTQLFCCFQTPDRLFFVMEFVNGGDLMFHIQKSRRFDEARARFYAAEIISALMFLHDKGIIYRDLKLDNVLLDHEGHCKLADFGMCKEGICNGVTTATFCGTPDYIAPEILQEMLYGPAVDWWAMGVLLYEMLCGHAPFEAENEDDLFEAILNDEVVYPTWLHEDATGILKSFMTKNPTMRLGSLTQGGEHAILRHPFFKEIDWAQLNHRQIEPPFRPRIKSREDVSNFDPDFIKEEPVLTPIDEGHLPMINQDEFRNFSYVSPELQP

Row | SMILES | inhibition at 10 µM ([1]; AURKC, 10 µM, read-out: % Competition) [%] | inhibition at 10 µM ([2]; DAPK1, 10 µM, read-out: % Competition) [%] | % Competition [3] [%] | inhibition at 10 µM ([4]; EPHA1, 10 µM, read-out: % Competition) [%] | inhibition at 10 µM ([5]; EPHB3, 10 µM, read-out: % Competition) [%] | competition [6] [%] | inhibition at 10 µM ([7]; YANK2, 10 µM, read-out: % Competition) [%] | inhibition at 10 µM ([1]; read-out: % Competition) [%] | inhibition at 10 µM ([2]; read-out: % Competition) [%] | inhibition at 10 µM ([4]; read-out: % Competition) [%] | inhibition at 10 µM ([5]; read-out: % Competition) [%] | inhibition at 10 µM ([7]; read-out: % Competition) [%] | inhibition at 10 µM ([1]; AURKC, compound concentration 10 uM, read-out: Percent Competition) [%] | inhibition at 10 µM ([2]; DAPK1, compound concentration 10 uM, read-out: Percent Competition) [%] | Percent Competition ([3]; compound concentration 10 uM) [%] | inhibition at 10 µM ([4]; EPHA1, compound concentration 10 uM, read-out: Percent Competition) [%] | inhibition at 10 µM ([5]; EPHB3, compound concentration 10 uM, read-out: Percent Competition) [%] | inhibition at 10 µM ([6]; PRKCH, compound concentration 10 uM, read-out: Percent Competition) [%] | inhibition at 10 µM ([7]; YANK2, compound concentration 10 uM, read-out: Percent Competition) [%]
1 | Fc1ccc(-c2c(-c3ccncc3)[nH]c3nccnc23)cc1 [Compound 122] | 86 | < 50 | 96 | 81 | 82 | < 50 | 89 | – | – | – | – | – | – | – | – | – | – | – | –
2 | CC(O)CNc1cc(-c2[nH]c3cccnc3c2-c2ccc(F)cc2)ccn1 (stereo not drawn) [Compound 140] | – | – | 70 | – | – | < 50 | – | < 50 | 73 | < 50 | < 50 | < 50 | – | – | – | – | – | – | –
3 | Fc1ccc(-c2c(-c3ccncc3)[nH]c3nccnc23)cc1 [RO1155697-000-005] | – | – | – | – | – | – | – | – | – | – | – | – | 86 | < 50 | 96 | 81 | 82 | < 50 | 89
